Experimental findings from patent US12213984B2, “Immunoregulatory agent” (KYUSHU UNIVERSITY, NATIONAL UNIVERSITY CORPORATION, priority 2015, dated 2025) are described below.

One assay addresses T1, DOCK2 (Homo sapiens, UniProt Q92608).
T1 construct: polypeptide fragments corresponding to a DHR-2 domain including the lobe B and the lobe C of DOCK2; Histidine-SUMO (N); made in house; host or cells: E. coli Arctic express DE3 (pET28a); Rac in E. coli BL21 DE3 (pGEX-6P-1)
T1 sequence (Q92608 1196-1622): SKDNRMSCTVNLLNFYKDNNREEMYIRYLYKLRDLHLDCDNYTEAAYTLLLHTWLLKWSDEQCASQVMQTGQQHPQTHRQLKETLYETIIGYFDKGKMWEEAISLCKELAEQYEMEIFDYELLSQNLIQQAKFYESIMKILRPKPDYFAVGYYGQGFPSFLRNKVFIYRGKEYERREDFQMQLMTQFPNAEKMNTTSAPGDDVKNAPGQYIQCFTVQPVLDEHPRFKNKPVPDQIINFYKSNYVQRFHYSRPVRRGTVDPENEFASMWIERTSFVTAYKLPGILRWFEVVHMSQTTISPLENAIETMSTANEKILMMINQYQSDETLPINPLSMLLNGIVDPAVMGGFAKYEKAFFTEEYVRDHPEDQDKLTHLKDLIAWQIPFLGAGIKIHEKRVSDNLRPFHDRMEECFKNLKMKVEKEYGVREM
The experiment in a line: in-vitro GEF assay, Rac activation by DOCK2 (Experimental Example 1). The class given is biochemical. On the procedure: (§1) The selectivity of the effect of inhibiting the GEF of DOCK2 by cholesterol 3-sulfate was examined. All of DOCK2, Trio, and Tiam are GEFs activating Rac. In the presence of serially diluted cholesterol 3-sulfate, the Rac activation ability of a DOCK2 protein, a Trio protein, and a Tiam protein was measured by in-vitro GEF assay. For the in-vitro GEF assay, a labeled GTP (trade name, “Bodipy-FL-GTP”, manufactured by Invitrogen) was used, because it has a property of increasing fluorescence intensity when binds to Rac by the action of GEF. […]
(§2) During the reaction, the change in the fluorescence intensity of Bodipy-FL-GPT was monitored using a spectrofluorometer Enspire manufactured by PerkinElmer Inc (excitation wavelength: 488 nm, emission wavelength: 514 nm). By calculation, the values obtained by the measurement were corrected such that the fluorescence intensity became 0 at a reaction starting point (0 second).
(§3) Then, by using software (trade name “GraphPad Prism 5”, manufactured by GraphPad Software Inc.), an approximation curve was created which is obtained in a case where the calculated corrected values are plotted on the y-axis and time (t) is plotted on the x-axis. […]

A further assay deals with T2, Trio (Homo sapiens, UniProt O75962).
T2 construct: a DH-PH domain of the Trio protein and the Tiam protein; Histidine-SUMO (N); made in house; host or cells: E. coli Arctic express DE3 (pET28a)
The experiment in a line: in-vitro GEF assay, Rac activation by Trio (Experimental Example 1). In kind it is biochemical. The protocol: as §1, §2, §3

The target in assay [1] is T3, protein composed of the lobe B and the lobe C of the DHR-2 domain of DOCK2 (Homo sapiens, UniProt Q92608).
T3 construct: the HIS-SUMO tagged protein composed of the lobe B and the lobe C of the DHR-2 domain of DOCK2; made in house; host or cells: E. coli Arctic express DE3 (pET28a)
T3 sequence (Q92608 1196-1622): T1 sequence (Q92608 1196-1622)
The experiment in a line: ELISA binding of steroid compounds to DHR-2 domain of DOCK2. To be noted: steroid immobilized at 100 μg/ml, protein 2 μg/mL.
Experimental: First, various steroid compounds prepared at 100 μg/ml by using 100% methanol were added in an amount of 50 μL to a 96-well plate for ELISA (trade name “Immulon 4HBX”, Thermo Scientific) and immobilized for 1 hour in a clean bench by air drying. Subsequently, 5% bovine serum albumin (BSA) diluted with TBS (20 mM Tris-HCl-150 mM NaCl, pH 7.5) was added thereto in an amount of 180 μL, the steroid compounds were incubated for 6 hours at 4° C., and the wells were blocked. Thereafter, each of the wells was rinsed three times with 180 μL of PBS-0.01% Tween-20. […] Then, each of the wells was rinsed three times with 180 μL of PBS-0.01% Tween-20. Subsequently, horseradish peroxidase (HRP)-labeled histidine probe (Thermo Scientific) diluted 5,000× was added in an amount of 100 μL to each well, and allowed to incubate for 1.5 hours at room temperature. Thereafter, each of the wells was rinsed three times with 180 μL of PBS-0.01% Tween-20, a 3,3′,5,5′-tetramethyl benzidine (TMB) solution (Thermo Scientific) as an HRP chromogenic substrate was added in an amount of 100 μL to each well so as to initiate a chromogenic reaction, and a stop solution (0.16 M sulfuric acid, Thermo Scientific) was added in an amount of 100 μL to each well so as to stop the reaction. Then, the absorbance at a wavelength of 450 nm was measured.

As usually defined, the IC50 is the midpoint of a concentration-inhibition curve. Low readings indicate greater potency in that assay, high ones weaker potency in that assay. As to `CC(C)CCC[C@@H](C)[C@H]1CC[C@H]2[C@@H]3CC=C4C[C@@H](OS(=O)(=O)O)CC[C@]4(C)[C@H]3CC[C@]12C` [C3S, cholesterol 3-sulfate], the concentration for half-maximal inhibition (IC50) is 6.7 µM on DOCK2 and more than 300 µM on Trio. In addition, in assay [1], the “binding to the protein composed of lobe B and lobe C of the DHR-2 domain of DOCK2 (ELISA, absorbance 450 nm)” value is “specifically binds”.
